According to ChEMBL document CHEMBL1201862, “PubChem BioAssay data set” (2004):
Values joined by “and” are separate entries in the source; they are usually repeats but may differ in a detail not shown here. Identical values can stand only once.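 A five-concentration, 48-hour dose response in 96-well plates underlies each endpoint, interpolated linearly between surrounding concentrations. Abbreviation: GI50, concentration required for 50% inhibition of growth.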 Active and inactive are the calls of the source. Cut-off read from the data, not from the text of the source: active = GI50 up to about 1.1 µM and inactive = higher.

Assays:
Experiment in all cases: NCI-60 cell line screen, 48 h
HCT-15 = test system: HCT-15
HOP-92 = test system: HOP-92
HT-29 = test system: HT-29
M14 = test system: M14
MOLT-4 = test system: MOLT-4
NCI-H23 = test system: NCI-H23
NCI-H460 = test system: NCI-H460
OVCAR-3 = test system: OVCAR-3
OVCAR-8 = test system: OVCAR-8
SF-295 = test system: SF-295
SK-MEL-28 = test system: SK-MEL-28
SK-MEL-2 = test system: SK-MEL-2
SK-MEL-5 = test system: SK-MEL-5
SK-OV-3 = test system: SK-OV-3
U-251 = test system: U-251
UACC-62 = test system: UACC-62
OVCAR-5 = test system: OVCAR-5

SMILES | GI50 (HCT-15) | GI50 (HOP-92) | GI50 (HT-29) | GI50 (M14) | GI50 (MOLT-4) | GI50 (NCI-H23) | GI50 (NCI-H460) | GI50 (OVCAR-3) | GI50 (OVCAR-8) | GI50 (SF-295) | GI50 (SK-MEL-28) | GI50 (SK-MEL-2) | GI50 (SK-MEL-5) | GI50 (SK-OV-3) | GI50 (U-251) | GI50 (UACC-62) | GI50 (OVCAR-5)
COc1ccc(C(=O)CC(=O)C(=O)Nc2ccc(C)c(C)c2)cc1 | 31.3 µM | > 51.3 µM (inactive) | > 100 µM (inactive) | > 100 µM (inactive) | > 53.2 µM (inactive) | > 100 µM (inactive) | > 41.3 µM (inactive) | > 100 µM (inactive) | > 100 µM (inactive) | > 100 µM (inactive) | > 100 µM (inactive) | > 100 µM (inactive) | 97.9 µM (inactive) | > 100 µM (inactive) | 63.4 µM (inactive) | > 95.5 µM (inactive) | 
CC1=NN(C(=O)CC(=O)Nc2cccc(Cl)c2)C(=O)C1/N=N/c1ccc(S(N)(=O)=O)cc1 (stereo not given) | > 100 µM | > 100 µM (inactive) | > 100 µM (inactive) | > 100 µM (inactive) | > 100 µM (inactive) | > 100 µM (inactive) | > 100 µM (inactive) | > 100 µM (inactive) | > 100 µM (inactive) | > 100 µM (inactive) | > 100 µM (inactive) | > 100 µM (inactive) | > 100 µM (inactive) | > 100 µM (inactive) | > 100 µM (inactive) | > 100 µM (inactive) | > 100 µM (inactive)
C[Si](C)(C)C#C[I+]c1ccccc1 | 22.5 µM | 40.5 µM (inactive) | 32.9 µM (inactive) | 23.5 µM (inactive) | 29.4 µM (inactive) | 36.8 µM (inactive) | > 100 µM (inactive) | 32.7 µM (inactive) | 19.6 µM (inactive) | > 100 µM (inactive) | 39.4 µM (inactive) | > 100 µM (inactive) | 45.9 µM (inactive) | > 100 µM (inactive) | 38 µM (inactive) | 33.2 µM (inactive) | > 100 µM (inactive)
O/N=C1/C(=C/c2ccc(Cl)cc2)CCCC1C(NO)c1ccc(Cl)cc1 (stereo not given) | 19.1 µM |  | 19.2 µM (inactive) | 16.2 µM (inactive) | 14.7 µM (inactive) | 20 µM (inactive) | 17.3 µM (inactive) | 16.8 µM (inactive) | 21.1 µM (inactive) | 18.9 µM (inactive) | 5.6 µM (inactive) | 27.1 µM (inactive) | 22.7 µM (inactive) | 50.8 µM (inactive) | 20.7 µM (inactive) | 29 µM (inactive) | 
COc1ccc(OC(C)C(=O)O)c2c1CCCC2=O (stereo not given) | > 100 µM |  | > 100 µM (inactive) | > 100 µM (inactive) | > 100 µM (inactive) | > 100 µM (inactive) | > 100 µM (inactive) | > 100 µM (inactive) | > 100 µM (inactive) | > 100 µM (inactive) | > 100 µM (inactive) | > 100 µM (inactive) | > 100 µM (inactive) | > 100 µM (inactive) | > 100 µM (inactive) | > 100 µM (inactive) | > 100 µM (inactive)
C/C(=N/OCCC(=O)O)C1CC1 | > 100 µM | > 100 µM (inactive) | > 100 µM (inactive) | > 100 µM (inactive) |  | > 100 µM (inactive) | > 100 µM (inactive) | > 100 µM (inactive) | > 100 µM (inactive) | > 100 µM (inactive) | > 100 µM (inactive) | > 100 µM (inactive) | > 100 µM (inactive) | > 100 µM (inactive) | > 100 µM (inactive) | > 100 µM (inactive) | 
CC(C)=CCSC1CC2C(CC1(C)O)C2(C)C (stereo not given) | 17.3 µM and 16.1 µM | 14.1 µM (inactive) and 16.6 µM (inactive) | 15.7 µM (inactive) and 14.9 µM (inactive) | 17.7 µM (inactive) and 14.7 µM (inactive) | 13.6 µM (inactive) and 20.9 µM (inactive) | 16.1 µM (inactive) and 12.5 µM (inactive) | 18.4 µM (inactive) and 14.2 µM (inactive) | 17.1 µM (inactive) and 11.4 µM (inactive) | 16.6 µM (inactive) and 14.1 µM (inactive) | 40.7 µM (inactive) and 20.9 µM (inactive) | 16.8 µM (inactive) and 17 µM (inactive) |  |  | 15 µM (inactive) and 16.2 µM (inactive) | 15.2 µM (inactive) and 14.1 µM (inactive) | 15.4 µM (inactive) and 17.5 µM (inactive) | 14.9 µM (inactive) and 16.5 µM (inactive)
COC1C(OC(=S)Nc2ccccc2)c2ccccc2N1C(C)=O (stereo not given) | 52.1 µM | 13.7 µM (inactive) | 99.1 µM (inactive) | 89.3 µM (inactive) | 44 µM (inactive) | > 100 µM (inactive) | > 100 µM (inactive) | > 100 µM (inactive) | > 100 µM (inactive) | 28.4 µM (inactive) | > 100 µM (inactive) | 68.9 µM (inactive) |  |  | > 100 µM (inactive) | 31.4 µM (inactive) | 
Cc1ccc(-c2cc(=S)n(-c3ccccc3)c3[nH]c(=S)n(-c4ccccc4)c(=N)c23)cc1 | > 100 µM | > 100 µM (inactive) | > 100 µM (inactive) | > 100 µM (inactive) | > 100 µM (inactive) | > 100 µM (inactive) | > 100 µM (inactive) | > 100 µM (inactive) | > 100 µM (inactive) | > 100 µM (inactive) | > 100 µM (inactive) | > 100 µM (inactive) | > 100 µM (inactive) |  | > 100 µM (inactive) | > 100 µM (inactive) | > 100 µM (inactive)
CN(C)/C(=N/C(=S)Nc1ccccc1)SCc1ccccc1 | 57.5 µM |  | 3.88 µM (inactive) | 67.8 µM (inactive) | 32.5 µM (inactive) | 40.9 µM (inactive) |  | 56.8 µM (inactive) | 56.4 µM (inactive) | 42.9 µM (inactive) | 42.2 µM (inactive) | 49.9 µM (inactive) | 3.14 µM (inactive) | > 100 µM (inactive) | 49.2 µM (inactive) | 6.17 µM (inactive) | > 100 µM (inactive)
COc1ccc2c(c1)[n+]([O-])c(-c1ccccc1Cl)c(N)[n+]2[O-] | 39.9 µM | > 100 µM (inactive) | 62.5 µM (inactive) | 73.1 µM (inactive) | 96.8 µM (inactive) | 37.2 µM (inactive) | 54.5 µM (inactive) | 40.6 µM (inactive) | > 100 µM (inactive) | > 100 µM (inactive) | > 100 µM (inactive) | > 100 µM (inactive) | 39.8 µM (inactive) | > 100 µM (inactive) | 69.2 µM (inactive) |  | > 100 µM (inactive)
COc1cc(/C=C2\C(=O)N(C(=O)c3ccc(NC(C)=O)cc3)N=C2C)ccc1O |  |  | > 100 µM (inactive) | > 100 µM (inactive) | > 100 µM (inactive) | > 100 µM (inactive) | > 100 µM (inactive) | > 100 µM (inactive) | > 100 µM (inactive) | > 100 µM (inactive) | > 100 µM (inactive) |  | > 100 µM (inactive) |  |  |  | > 100 µM (inactive)
CCc1ccccc1NC(=O)C1=C(C)NC(C)=C(C(=O)Nc2ccccc2CC)C1c1ccc(NC(C)=O)cc1 |  | 25.8 µM (inactive) | 37.7 µM (inactive) | 39 µM (inactive) | 15.3 µM (inactive) | 42.7 µM (inactive) | 30.5 µM (inactive) | 33.2 µM (inactive) | 33.9 µM (inactive) | 54.7 µM (inactive) | 22.2 µM (inactive) | 22.4 µM (inactive) | 38.1 µM (inactive) | > 100 µM (inactive) | 53.6 µM (inactive) |  | > 100 µM (inactive)
OCC1C(/C=C/c2ccoc2)ON2CCCC12 (stereo not given) |  |  | > 100 µM (inactive) | > 100 µM (inactive) |  | > 100 µM (inactive) | > 100 µM (inactive) |  | > 100 µM (inactive) | > 100 µM (inactive) | > 100 µM (inactive) | > 100 µM (inactive) |  |  | > 100 µM (inactive) |  | > 100 µM (inactive)
Cc1nc(Nc2ccc(Cl)cc2)sc1C(=O)NNC(=O)C(=O)NN | 17.1 µM | 19.9 µM (inactive) | 16.6 µM (inactive) | 18.6 µM (inactive) | 19.5 µM (inactive) | 16.6 µM (inactive) | 19.7 µM (inactive) | 21.5 µM (inactive) | 32.5 µM (inactive) | 18.2 µM (inactive) | 22.8 µM (inactive) | 17.6 µM (inactive) | 18.7 µM (inactive) | 22 µM (inactive) | 19.1 µM (inactive) | 15.3 µM (inactive) | 17 µM (inactive)
Cc1c(C(=O)/C=C/c2ccc(N(C)C)cc2)c(=O)n(-c2ccccc2)n1C | > 100 µM | > 100 µM (inactive) | > 100 µM (inactive) |  | > 100 µM (inactive) | > 100 µM (inactive) | > 100 µM (inactive) | > 100 µM (inactive) | > 100 µM (inactive) | > 100 µM (inactive) | > 100 µM (inactive) | > 100 µM (inactive) |  | > 100 µM (inactive) | > 100 µM (inactive) | > 100 µM (inactive) | > 100 µM (inactive)
COc1cc(/C=C/C(=O)c2cccc3ccccc23)cc(OC)c1OC |  |  | 4.27 µM (inactive) | 5.93 µM (inactive) | 3.44 µM (inactive) | 5.32 µM (inactive) | 3.78 µM (inactive) | 12.8 µM (inactive) | 1.98 µM (inactive) | 10.1 µM (inactive) | 6.24 µM (inactive) | 3.46 µM (inactive) | 10.4 µM (inactive) | 15.2 µM (inactive) | 6.41 µM (inactive) | 6.71 µM (inactive) | 14.2 µM (inactive)
c1ccc(-c2nnc(-c3nn(-c4ccccc4)c4nc5ccccc5nc34)o2)cc1 | 43.5 µM |  | > 100 µM (inactive) | 79.1 µM (inactive) | 21.5 µM (inactive) | 41.2 µM (inactive) | > 10 µM (inactive) | 66.8 µM (inactive) | 51.9 µM (inactive) | > 100 µM (inactive) | > 100 µM (inactive) | > 100 µM (inactive) |  | > 100 µM (inactive) | 85.1 µM (inactive) | 69.2 µM (inactive) | > 100 µM (inactive)
